Where two headings read alike, the source gives them in different places.
Assays:
[1] = system: APP processing (α-secretase pathway, CTFs) in swAPP-HEK293 cells; test: Western blot of APP, sAPPα, C83 and C99 in swAPP-HEK293 cells
Procedure: swAPP-HEK293 cells were scraped and lysed in CelLytic-M (Sigma). Protein concentrations were determined by the Bradford procedure. Equal quantity of proteins were separated on a 10% SDS-PAGE gel and transferred to Hybond-C (Amersham Biosciences) membranes. After transfer, membranes were blocked with 5% nonfat milk and incubated overnight with the primary antibody anti-APP antibody at 1/1000 (Serotec), allowing the detection of both APP and C83-C99 CTFs under specific separation and exposure conditions. For sAPPα detection, cells were allowed to secrete for 7 h. Media were collected, centrifuged and then equal amount of secretate were loaded on 10% SDS-PAGE and Western blotted with 6E10 monoclonal antibody (1/1000).

RhoA = RhoA (Homo sapiens, UniProt P61586); settings: Gao et al. 2004, Picard et al., submitted, cited from earlier work
[2] = system: Notch-1 (NotchΔE) cleavage; test: NotchΔE transfection and Notch-1 cleavage assay in Hela cells; settings: Hela cells overexpressing NotchΔE, up to 16 hours; DAPT 2 μM
[3] = system: intracellular Aβ 40 and Aβ 42 in swAPP-HEK293 cells; test: Intracellular (cell-associated) Aβ 40 and Aβ 42 ELISA, swAPP-HEK293 cells; type: cell-based, human; settings: qualitative; for Aβ 40 and Aβ 42 intracellular levels: swAPP-HEK293 cell lysates, normalized to cellular protein
[4] = system: Aβ 40 and Aβ 42 production in swAPP-HEK293 cells; test: Secreted Aβ 40 and Aβ 42 ELISA, swAPP-HEK293 cells; type: cell-based, human; settings: for secreted Aβ 40 and Aβ 42: swAPP-HEK293, 18 h, 20, 10 or 2 μM
From the text: Human APP harbouring the “Swedish” mutation (swAPP) is more prone to processing than wtAPP.

[5] = system: Aβ 40 production in SH-SY5Y cells; settings: for reduction in secreted Aβ 40 levels: 18 h
Procedure: Cells were treated 48 hours after plating in 10 cm plates with various concentrations of the indicated molecules, or DMSO as the vehicle for 16 hours. To do so, medium was replaced with 5 ml of new medium in which treatments were performed. Total DMSO dilution was 1/1000 in all cases. Cells were allowed to secrete in 5 ml medium for 7 hours in the presence of 1 μM phosphoramidon.
Stably transfected swAPP-HEK293 cells were incubated for 7 hours in the presence of phosphoramidon (1 μM) (Sigma). Media and cell lysates were collected as above, centrifuged, normalized to total protein and assayed for Aβ 40 and Aβ 42 by sandwich ELISA according to the manufacturer's instructions (Biosource International). For Aβ 42 detection, samples were concentrated on YM3 Microcon columns (Millipore). […] Right cortices were homogenized for 3 h at room temperature in 5M Guanidine-Hcl, 50 mM Tris-Hcl, pH8 with a protease inhibitor mixture (Roche Diagnostics). Tissue homogenates were diluted 1:1 (v/v) in BSAT-DPBS buffer (Dulbecco's phosphate buffered saline with 5% BSA and 0.03% Tween-20), pH 7.4, and were centrifuged at 20,000 g for 20 min at 4° C. Supernatants were diluted 1:1 (v/v) in ELISA kit sample buffer, normalized to total protein and assayed for Aβ 40 and Aβ 42 by sandwich ELISA according to the manufacturer's instructions. For Aβ 42 detection, samples were concentrated on YM3 Microcon columns (Millipore).

[6] = system: constitutively active mutant Rac1-Val12 (RACV12); test: Transient expression luciferase reporter assays in NIH3T3 cells cotransfected with RacV12; settings: c-Jun, NF-KB and cyclin D1 reporter constructs; qualitative
Procedure: Briefly, 250,000 NIH3T3 cells/well were seeded in 6-well plates and were co-transfected 24 h later with plasmids prK5-RacV12 and reporter constructs using LipofectAMINE Plus (Invitrogen). Compound of interest was added after the incubation with LipofectAmine. 24 h after transfection, cells were starved for an additional 24 h with Dulbecco's modified Eagle medium supplemented with 0.5% FBS together with the appropriate doses of test compounds or the solvent only. Analyses of the cell lysates of the transiently transfected NIH3T3 cells were performed using the Luciferase Assay System (Promega) and Fluoroscan Ascent FL plate reader (Thermo LabSystems). […] However, consistent and reproducible data were obtained in different assays performed using several plasmid preparations, and we monitored protein concentration for yield in the cell extracts as well as expression of the tagged, exogenous protein by Western blotting.

Rac1 = Rac1 (Homo sapiens, UniProt P63000); test: Endogenous Rac GTPase activation assay (GST-Pak-PBD pull-down of GTP-Rac1) in U87-MG cells; settings: qualitative
Procedure: U87-MG cells were grown in a 150-mm-diameter dish until they reached 80% confluency. The cells were then treated with the test compounds or the solvent only. Cells were then lyzed in a buffer containing 0.5% triton, 10 mM Tris pH7.5, mM KCl, 120 mM NaCl and 1.8 mM CaCl2. Lysates were clarified, the protein concentrations were normalized, and the GTP-bound Rac1 in the lysates were measured using the Rac Activation Assay Biochem kit (Cytoskeleton) as per manufacturer's recommendations.
We used a GST-fusion protein containing the p21-binding domain (PBD) of human p21-activated kinase 1 (Pak1) to affinity precipitate endogenous active Rac1 (GTP-Rac1) from cell lysates to monitor the activation of the small GTPase Rac1.

γ-secretase [7] = test: γ-Secretase assay, de novo Aβ generation from membranes of compound-treated cells; type: cell-based; settings: cells incubated with compound for 16 hours
Procedure: We implemented a an assay allowing de novo Aβ generation in vitro, using cell membranes as the source of γ-secretase. Preparation of solubilized γ-secretase fractions was performed essentially as described previously (Li, Y. M., Lai, M. T., Xu, M., Huang, Q., DiMuzio-Mower, J., Sardana, M. K., Shi, X. P., Yin, K. C., Shafer, J. A., and Gardell, S. J. (2000) Proc. Natl. Acad. Sci. U.S.A. 97, 6138-6143) with the above modifications. All incubations were performed in the presence of Complete Protease Inhibitor Cocktail. Confluent plates swAPP-HEK293 cells were lysed in 1 ml of ice-cold CelLytic-M (Sigma) and incubated 15 minutes at 4° C. on a shaker. Cell debris and nuclei were removed by centrifugation at 1000×g for 15 min at 4° C. […] Solubilized γ-secretase activity was induced at 37° C. for 2 h with or without the indicated treatments and Aβ 40 generated de novo was quantified by ELISA. […]
To test this hypothesis, we used an established γ-secretase assay allowing de novo Aβ generation in vitro, using cell membranes as the source of γ-secretase. Solubilized γ-secretase fractions are activated in a γ-secretase buffer (see experimental procedures) and activity is monitored following either the cleavage of an internally quenched fluorogenic γ-secretase substrate, or endogenous C99 itself. […] C99 cleavage by γ-secretase was measured by de novo Aβ 40 generation. […]

γ-secretase [8] = test: γ-Secretase assay, compound added to solubilized γ-secretase preparations; type: biochemical
Procedure: We implemented a an assay allowing de novo Aβ generation in vitro, using cell membranes as the source of γ-secretase. Preparation of solubilized γ-secretase fractions was performed essentially as described previously (Li, Y. M., Lai, M. T., Xu, M., Huang, Q., DiMuzio-Mower, J., Sardana, M. K., Shi, X. P., Yin, K. C., Shafer, J. A., and Gardell, S. J. (2000) Proc. Natl. Acad. Sci. U.S.A. 97, 6138-6143) with the above modifications. All incubations were performed in the presence of Complete Protease Inhibitor Cocktail. Confluent plates swAPP-HEK293 cells were lysed in 1 ml of ice-cold CelLytic-M (Sigma) and incubated 15 minutes at 4° C. on a shaker. Cell debris and nuclei were removed by centrifugation at 1000×g for 15 min at 4° C. For membrane isolation, the supernatant solutions were centrifuged at 20,000×g for 1 hour at 4° C. After centrifugation, the ensuing pellets were resuspended in 100 μl activity buffer (150 mM Na Citrate, pH 6.4)/cells plate and were defined as solubilized γ-secretase, as previously shown by Pinnix et al. (2001). Solubilized γ-secretase activity was induced at 37° C. for 2 h with or without the indicated treatments and Aβ 40 generated de novo was quantified by ELISA. Control experiments used the internally quenched fluorogenic γ-secretase substrate NMA-[…](DNP)-DRDRDR-NH2 (λex=355 nm; λem=440 nm) from Calbiochem, which contains the C-terminal β-APP amino acid sequence that is cleaved by γ-secretase and the γ-secretase inhibitor N—[N-(3,5-Difluorophenacetyl-L-alanyl)]-S-phenylglycine t-Butyl Ester (DAPT, Calbiochem).
To test this hypothesis, we used an established γ-secretase assay allowing de novo Aβ generation in vitro, using cell membranes as the source of γ-secretase. Solubilized γ-secretase fractions are activated in a γ-secretase buffer (see experimental procedures) and activity is monitored following either the cleavage of an internally quenched fluorogenic γ-secretase substrate, or endogenous C99 itself. The well characterized cell permeable γ-secretase inhibitor DAPT (Lanzn, T. A., Himesn, C. S., Pallanten, G., Adamsn, L., Yamazakin, S., Amoren, B., and Merchantn, K. M. (2003) J. Pharmacol. Exp. Ther. 305, 864-871) is included as control. C99 cleavage by γ-secretase was measured by de novo Aβ 40 generation. De novo Aβ 40 production increased with time and was optimal at 37° C. (FIG. 4 B). […] When temperature decreased, Aβ 40 generation decreased in parallel and was abolished at 4° C., in accordance with an enzymatic processing. […] (data not shown).

Recombinant Rac2 = Recombinant Rac2 (Homo sapiens, UniProt P15153); test: biochemical
[9] = rat, in vivo
Recombinant Rac3 = Recombinant Rac3 (Homo sapiens, UniProt P60763); test: biochemical
[10] = target: T1, recombinant human BACE protein (Homo sapiens, UniProt P56817); test: BACE fluorogenic assay with recombinant protein; type: biochemical; settings: recombinant human BACE 1 μg/well, pH4.4; compound 38 at 2, 10 or 20 μM and higher
T1 construct: purchased R&D Systems
From the text: (§1) The human BACE1 cDNA was generated by RT-PCR from human brain mRNA samples (Biocat, Germany) and cloned into pcDNA3 expression vector. Subsequently, a HEK293 cell line stably expressing BACE1 was generated and used as a source of BACE1. An in vitro assay was developed based on previous studies (Ermolieff, J., Loy, J. A., Koelsch, G., and Tang, J. (2000) Biochemistry 39, 12450-12456) using a quenched fluorogenic substrate containing the Swedish mutation MCA-[…](DNP)-CONH2 (Substrate V, Calbiochem). Proteins were extracted in 20 mM MES/1% Triton X100 plus protease inhibitor cocktail by incubation on ice for 30 minutes. The assay was carried out in black 96 well plates (ATGC) in a volume of 200 μl reaction buffer (25 mM MES/25 mM Sodium Acetate/25 mM Tris, pH 4.4), containing 25 μl of the preparation plus 15 μM peptide Substrate V. Excitation was performed at 320 nm and the reaction kinetics were monitored by measuring the fluorescence emission at 420 nm on a Fluoroscan Ascent FL plate reader (Thermo LabSystems). Controls included purified recombinant human BACE501 protein (R&D Systems) diluted at 1 μg/well in 200 μl of 0.1 M Na Acetate buffer (pH 4.4), the BACE substrate analog inhibitor III (H-Glu-Val-Asn-Statine-Val-Ala-Glu-Phe-NH2, Calbiochem), or substrate alone, and background fluorescence was subtracted to recorded BACE activitiy. […]

BACE1 = target: T2, BACE1 (Homo sapiens, UniProt P56817); test: Cellular BACE activity, HEK293 cells stably expressing BACE1; type: cell-based; settings: cells incubated 24 hours with compound 38 at 2, 10 or 20 μM
T2 construct: expressed in transfected cells; host or cells: HEK293
From the text: as §1

[11] = Acute toxicity and tolerability in rat; settings: in vivo
Cdc42 = Cdc42 (Homo sapiens, UniProt P60953); settings: Gao et al. 2004; Picard et al., submitted; cited from earlier work
[12] = system: Rac1-dependent cytoskeleton rearrangements; settings: Picard et al., submitted; cited from earlier work
[13] = rat, in vivo; remark: listed apart in the source
[14] = Homo sapiens, read-out: IC50, secreted Aβ 40

RhoA, sequence (P61586 whole entry, species assumed): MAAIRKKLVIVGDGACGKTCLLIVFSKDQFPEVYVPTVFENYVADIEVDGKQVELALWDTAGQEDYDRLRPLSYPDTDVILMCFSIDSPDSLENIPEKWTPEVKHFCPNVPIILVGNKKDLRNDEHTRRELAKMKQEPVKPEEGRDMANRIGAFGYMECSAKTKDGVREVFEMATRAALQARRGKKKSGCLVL
T1 sequence (P56817 46-501): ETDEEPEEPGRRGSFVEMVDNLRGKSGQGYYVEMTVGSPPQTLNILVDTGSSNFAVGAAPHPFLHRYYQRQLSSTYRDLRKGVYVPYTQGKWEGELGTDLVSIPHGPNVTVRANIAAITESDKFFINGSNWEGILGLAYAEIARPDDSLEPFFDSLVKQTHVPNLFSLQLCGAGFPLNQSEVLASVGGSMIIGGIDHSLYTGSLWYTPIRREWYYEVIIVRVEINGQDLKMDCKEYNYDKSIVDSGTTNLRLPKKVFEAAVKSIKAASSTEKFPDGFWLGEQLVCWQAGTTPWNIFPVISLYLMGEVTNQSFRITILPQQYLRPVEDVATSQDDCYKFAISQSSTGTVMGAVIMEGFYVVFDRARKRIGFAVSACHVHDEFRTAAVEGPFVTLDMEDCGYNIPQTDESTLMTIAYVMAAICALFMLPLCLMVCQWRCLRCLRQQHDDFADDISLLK
T2 sequence (P56817 46-501): as above
Cdc42, sequence (P60953 whole entry, species assumed): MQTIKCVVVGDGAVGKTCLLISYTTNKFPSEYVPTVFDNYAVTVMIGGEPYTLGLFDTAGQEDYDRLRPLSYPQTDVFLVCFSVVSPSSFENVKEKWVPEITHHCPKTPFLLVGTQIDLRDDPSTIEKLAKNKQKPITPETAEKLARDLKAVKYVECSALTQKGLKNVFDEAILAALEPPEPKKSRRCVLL

Compound: CCN(CC)CCCC(C)Nc1nc(C)cc(Nc2ccc3nc(C)cc(N)c3c2)n1 (racemic) [compound 49]
- APP expression and maturation, α-secretase pathway (APP, C83, sAPPα) ([1]; swAPP-HEK293, 16 hours): no alterations
- activity on / interaction with RhoA (RhoA): does not interact with cdc42 and RhoA
- activity on / interaction with RhoA (RhoA; listed as NSC23766): not to affect the activity of Cdc42 or RhoA
- Notch cleavage (NICD by Western blot) [2]: no alterations
- intracellular Aβ 40 ([3]; swAPP-HEK293): no intracellular accumulation of Aβ 40
- intracellular levels of Aβ 42 ([3]; swAPP-HEK293): dose-dependently decreased
- IC50 [4, 14]: 48900 nM
- inhibition at 50 µM ([4]; Homo sapiens, read-out: inhibition of released Aβ 42): 58%
- secreted Aβ 40 levels ([4]; swAPP-HEK293, various concentrations, qualitative): dose-dependently reduced secreted Aβ 40 levels
- extracellular levels of Aβ 42 ([4]; swAPP-HEK293, qualitative): dose-dependently decreased

Compound: CN1CCN(Cc2cc(=O)c(OCCCCCOc3ncnc4ccccc34)co2)CC1 (racemic) [compound 53, 5-(5-(Quinazolin-4-yloxy)pentyloxy)-2-((4-methylpiperazin-1-yl)methyl)-4H-pyran-4-one]
- reducing Aβ levels ([5]; qualitative): strictly inactive
- luciferase activity from all 3 reporter constructs [6]: did not change luciferase activity
- Rac1 activation (Rac1): totally unable to inhibit Rac1 activation
- de novo Aβ production from C99 (γ-secretase activity) (γ-secretase [7]): did not affect γ-secretase activity
- Aβ 40 and Aβ 42 intracellular levels [3]: strictly inactive
- secreted Aβ 40 and Aβ 42 ([4]; qualitative): strictly inactive

Compound: C[C@H](NC(=O)Cc1cc(F)cc(F)c1)C(=O)N[C@H](C(=O)OC(C)(C)C)c1ccccc1 [DAPT, N—[N-(3,5-Difluorophenacetyl-L-alanyl)]-S-phenylglycine t-Butyl Ester, reference compound]
- Notch cleavage (NICD by Western blot) [2]: potently inhibited
- Aβ production (de novo Aβ 40 generation) (γ-secretase [8]; control inhibitors, DAPT at 2 μM): completely inhibited

Compound: Cl.Cl.O=c1cc(CN2CCOCC2)occ1OCCCCCSc1ccnc2cc(C(F)(F)F)ccc12 [compound 38, 5-(5-(7-(Trifluoromethyl)quinolin-4-ylthio)pentyloxy)-2-(morpholinomethyl)-4H-pyran-4-one dihydrochloride]
- Kd (Recombinant Rac2): 60 nM
- tolerability [9]: good tolerability
- reduction in secreted Aβ 40 levels ([5]; 2 μM): 12.9%
- reduction in secreted Aβ 40 levels ([5]; 10 μM): 30.1%
- reduction in secreted Aβ 40 levels ([5]; 20 μM): 79.8%
- IC50 [5, 14]: 5440 nM
- C99 level ([1]; swAPP-HEK293): dose-dependent increase in C99
- level of full-length cytosolic and membranous APP ([1]; swAPP-HEK293): unchanged
- C83 levels ([1]; swAPP-HEK293, 20, 10 or 2 μM): neither affected sAPPα nor C83 levels
- sAPPα levels secreted in culture medium ([1]; swAPP-HEK293, 20, 10 or 2 μM): neither affected sAPPα nor C83 levels
- Kd (Recombinant Rac3): 270 nM
- BACE activity (cleavage of fluorogenic Substrate V) [10]: did not affect fluorescence
- activity on / interaction with RhoA (RhoA): selective over cdc42 and RhoA
- cellular BACE activity (fluorescence) (BACE1): did not affect fluorescence
- Notch cleavage (NICD by Western blot) [2]: did not affect Notch cleavage
- LD50 ([11]; iv): 50 mg/kg
- LD50 ([11]; po): > 1000 mg/kg
- activity on / interaction with Cdc42 (Cdc42): selective over cdc42 and RhoA
- Rac1-dependent cytoskeleton rearrangements [12]: prevents
- brain concentrations ([13]; iv, 5 mg/kg): 130 ng/g
- brain concentrations ([13]; po, 100 mg/kg): 54 ng/g
- genotoxicity (Ames test) (Ames test): no genotoxicity
- decrease in Aβ 42 levels (brain Aβ 40 and Aβ 42; guinea pig, 40 mg/kg per day i.p., 15 days, just below significance): 23.6%
- lowering of brain Aβ 40 (brain Aβ 40 and Aβ 42; guinea pig, 40 mg/kg per day i.p., 15 days, p<0.05 Wilcoxon): 37%
- reduction in Aβ levels in vivo (brain Aβ 40 and Aβ 42; summary statement): ~30%
- C83 and C99 levels (brain Aβ 40 and Aβ 42; treated guinea pigs): No significant changes
- full-length APP levels (brain Aβ 40 and Aβ 42; treated guinea pigs): no change
- de novo Aβ production from C99 (γ-secretase activity) (γ-secretase [7]): dose-dependent reduction
- Aβ 40 and Aβ 42 intracellular levels [3]: dose-dependent decrease
- Aβ 40 and Aβ 42 levels ([4]; swAPP-HEK293, 50 μM or above): below the detection limit
- secreted Aβ 40 and Aβ 42 ([4]; qualitative): dose-dependently inhibits both Aβ species
- de novo Aβ 40 generation from membrane preparations (γ-secretase [8]; added to solubilized γ-secretase from untreated cells, 50 μM): did not change
- de novo Aβ 40 generation from membrane preparations (γ-secretase [8]; concentrations as high as 4 mM): lack of effect
- cleavage of fluorogenic γ-secretase substrate (γ-secretase [8]; direct addition): not a direct competitive inhibitor of γ-secretase

Compound: H-Glu-Val-Asn-Statine-Val-Ala-Glu-Phe-NH2 [BACE Inhibitor III, reference compound]
- BACE activity (cleavage of fluorogenic Substrate V) [10]: abolished the cleavage
- cellular BACE activity (fluorescence) (BACE1): inhibited
